Source: patent publication US10844077B2, “Thiazolyl-containing compounds for treating proliferative diseases” (Dana-Farber Cancer Institute, Inc., priority 2014, dated 2020)
Like-named read-outs stand apart in the source and are kept apart here.

Assays:
Assay type in all cases: binding
broad panel of kinases [1] = biological target: broad panel of kinases (Homo sapiens, UniProt P51956); settings: NEK3; 1 μM
broad panel of kinases [2] = biological target: broad panel of kinases (Homo sapiens, UniProt P51817); settings: PRKX; 1 μM
broad panel of kinases [3] = biological target: broad panel of kinases (Homo sapiens, UniProt Q06187); settings: BTK; 1 μM
broad panel of kinases [4] = biological target: broad panel of kinases (Homo sapiens, UniProt Q9BXA7); settings: TSSK1B; 1 μM
broad panel of kinases [5] = biological target: broad panel of kinases (Homo sapiens, UniProt P11802); settings: 1 μM
broad panel of kinases [6] = biological target: broad panel of kinases (Homo sapiens, UniProt P21802); settings: FGFR2; 1 μM
broad panel of kinases [7] = biological target: broad panel of kinases (Homo sapiens, UniProt Q15303); settings: ERBB4; 1 μM
broad panel of kinases [8] = biological target: broad panel of kinases (Homo sapiens, UniProt P00533, L861Q); settings: EGFR(L861Q); 1 μM
broad panel of kinases [9] = biological target: broad panel of kinases (Homo sapiens, UniProt P10721, V559D); settings: KIT(V559D); 1 μM
broad panel of kinases [10] = biological target: broad panel of kinases (Homo sapiens, UniProt P48736); settings: PIK3CG; 1 μM
broad panel of kinases [11] = biological target: broad panel of kinases (Homo sapiens, UniProt Q9UQ88); settings: CDC2L2; 1 μM
broad panel of kinases [12] = biological target: broad panel of kinases (Homo sapiens, UniProt Q13164); settings: ERK5; 1 μM
broad panel of kinases [13] = biological target: broad panel of kinases (Homo sapiens, UniProt P27361); settings: ERK1; 1 μM
broad panel of kinases [14] = biological target: broad panel of kinases (Homo sapiens, UniProt Q92630); settings: DYRK2; 1 μM
broad panel of kinases [15] = biological target: broad panel of kinases (Homo sapiens, UniProt Q14164); settings: IKK-epsilon; 1 μM
broad panel of kinases [16] = biological target: broad panel of kinases (Homo sapiens, UniProt P29597); settings: 1 μM
broad panel of kinases [17] = biological target: broad panel of kinases (Homo sapiens, UniProt P53350); settings: PLK1; 1 μM
broad panel of kinases [18] = biological target: broad panel of kinases (Homo sapiens, UniProt O14733); settings: MKK7; 1 μM
broad panel of kinases [19] = biological target: broad panel of kinases (Homo sapiens, UniProt P08922); settings: ROS1; 1 μM
broad panel of kinases [20] = biological target: broad panel of kinases (Homo sapiens, UniProt O00141); settings: SGK; 1 μM
broad panel of kinases [21] = biological target: broad panel of kinases (Homo sapiens, UniProt Q16659); settings: ERK3; 1 μM
broad panel of kinases [22] = biological target: broad panel of kinases (Homo sapiens, UniProt Q05655); settings: PRKCD; 1 μM
broad panel of kinases [23] = biological target: broad panel of kinases (Homo sapiens, UniProt O43283); settings: LZK; 1 μM
broad panel of kinases [24] = biological target: broad panel of kinases (Homo sapiens, UniProt Q9Y4K4); settings: MAP4K5; 1 μM
broad panel of kinases [25] = biological target: broad panel of kinases (Homo sapiens, UniProt Q9H2X6); settings: HIPK2; 1 μM
broad panel of kinases [26] = biological target: broad panel of kinases (Homo sapiens, UniProt Q9UEE5); settings: DRAK1; 1 μM
broad panel of kinases [27] = biological target: broad panel of kinases (Plasmodium falciparum, UniProt P62344)
broad panel of kinases [28] = biological target: broad panel of kinases (Homo sapiens, UniProt Q02763); settings: TIE2; 1 μM
broad panel of kinases [29] = biological target: broad panel of kinases (Homo sapiens, UniProt Q52WX2); settings: SBK1; 1 μM
broad panel of kinases [30] = biological target: broad panel of kinases (Homo sapiens, UniProt O15264); settings: p38-delta; 1 μM
broad panel of kinases [31] = biological target: broad panel of kinases (Homo sapiens, UniProt Q96D53); settings: ADCK4; 1 μM
broad panel of kinases [32] = biological target: broad panel of kinases (Homo sapiens, UniProt P00533, G719S); settings: EGFR(G719S); 1 μM
broad panel of kinases [33] = biological target: broad panel of kinases (Homo sapiens, UniProt Q8WU08); settings: YANK1; 1 μM
broad panel of kinases [34] = biological target: broad panel of kinases (Homo sapiens, UniProt Q8IW41)
broad panel of kinases [35] = biological target: broad panel of kinases (Homo sapiens, UniProt Q9UQM7); settings: CAMK2A; 1 μM
broad panel of kinases [36] = biological target: broad panel of kinases (Homo sapiens, UniProt Q8NI60); settings: ADCK3; 1 μM
broad panel of kinases [37] = biological target: broad panel of kinases (Homo sapiens, UniProt Q13470); settings: TNK1; 1 μM

Sequence of broad panel of kinases (Homo sapiens, UniProt P11802) (P11802 2-303 limits assumed): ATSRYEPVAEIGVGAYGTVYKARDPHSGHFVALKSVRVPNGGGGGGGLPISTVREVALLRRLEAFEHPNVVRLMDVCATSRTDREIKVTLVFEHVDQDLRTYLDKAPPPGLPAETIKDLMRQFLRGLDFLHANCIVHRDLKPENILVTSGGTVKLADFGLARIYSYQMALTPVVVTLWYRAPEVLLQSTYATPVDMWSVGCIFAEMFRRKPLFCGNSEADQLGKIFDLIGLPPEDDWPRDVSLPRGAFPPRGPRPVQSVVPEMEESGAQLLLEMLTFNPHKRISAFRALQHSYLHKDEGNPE
Sequence of broad panel of kinases (Homo sapiens, UniProt Q8WU08) (Q8WU08 2-396 limits assumed): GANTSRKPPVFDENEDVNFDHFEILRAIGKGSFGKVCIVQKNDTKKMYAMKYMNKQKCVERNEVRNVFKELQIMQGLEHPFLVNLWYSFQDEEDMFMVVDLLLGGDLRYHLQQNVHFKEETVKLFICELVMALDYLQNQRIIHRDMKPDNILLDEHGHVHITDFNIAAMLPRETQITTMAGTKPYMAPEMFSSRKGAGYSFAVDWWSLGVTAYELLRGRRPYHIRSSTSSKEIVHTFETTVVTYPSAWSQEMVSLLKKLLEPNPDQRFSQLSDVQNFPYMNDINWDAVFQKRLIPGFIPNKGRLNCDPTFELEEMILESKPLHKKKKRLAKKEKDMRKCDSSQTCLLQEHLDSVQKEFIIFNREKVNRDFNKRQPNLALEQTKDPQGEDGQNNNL
Sequence of broad panel of kinases (Homo sapiens, UniProt P21802) (P21802 22-821 limits assumed): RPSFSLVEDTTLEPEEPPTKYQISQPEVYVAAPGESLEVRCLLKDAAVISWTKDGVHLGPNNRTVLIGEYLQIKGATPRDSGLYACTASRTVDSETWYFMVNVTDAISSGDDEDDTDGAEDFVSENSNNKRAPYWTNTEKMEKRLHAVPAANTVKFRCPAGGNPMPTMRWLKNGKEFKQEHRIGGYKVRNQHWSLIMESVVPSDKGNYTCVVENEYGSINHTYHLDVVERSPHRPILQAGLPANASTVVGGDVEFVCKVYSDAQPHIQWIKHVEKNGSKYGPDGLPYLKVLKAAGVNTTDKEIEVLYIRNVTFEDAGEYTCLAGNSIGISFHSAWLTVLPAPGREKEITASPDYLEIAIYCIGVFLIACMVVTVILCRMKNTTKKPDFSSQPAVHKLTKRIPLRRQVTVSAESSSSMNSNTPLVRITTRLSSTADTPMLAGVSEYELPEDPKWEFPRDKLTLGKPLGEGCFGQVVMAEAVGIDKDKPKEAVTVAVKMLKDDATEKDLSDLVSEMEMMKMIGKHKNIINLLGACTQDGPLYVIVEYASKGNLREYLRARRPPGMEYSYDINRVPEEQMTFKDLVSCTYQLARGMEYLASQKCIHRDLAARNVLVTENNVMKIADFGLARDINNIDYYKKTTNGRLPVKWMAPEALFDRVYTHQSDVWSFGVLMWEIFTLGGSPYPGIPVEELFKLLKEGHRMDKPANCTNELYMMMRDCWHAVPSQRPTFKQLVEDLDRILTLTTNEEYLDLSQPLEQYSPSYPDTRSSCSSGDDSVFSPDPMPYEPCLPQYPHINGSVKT
Sequence of broad panel of kinases (Homo sapiens, UniProt Q06187) (Q06187 2-659 limits assumed): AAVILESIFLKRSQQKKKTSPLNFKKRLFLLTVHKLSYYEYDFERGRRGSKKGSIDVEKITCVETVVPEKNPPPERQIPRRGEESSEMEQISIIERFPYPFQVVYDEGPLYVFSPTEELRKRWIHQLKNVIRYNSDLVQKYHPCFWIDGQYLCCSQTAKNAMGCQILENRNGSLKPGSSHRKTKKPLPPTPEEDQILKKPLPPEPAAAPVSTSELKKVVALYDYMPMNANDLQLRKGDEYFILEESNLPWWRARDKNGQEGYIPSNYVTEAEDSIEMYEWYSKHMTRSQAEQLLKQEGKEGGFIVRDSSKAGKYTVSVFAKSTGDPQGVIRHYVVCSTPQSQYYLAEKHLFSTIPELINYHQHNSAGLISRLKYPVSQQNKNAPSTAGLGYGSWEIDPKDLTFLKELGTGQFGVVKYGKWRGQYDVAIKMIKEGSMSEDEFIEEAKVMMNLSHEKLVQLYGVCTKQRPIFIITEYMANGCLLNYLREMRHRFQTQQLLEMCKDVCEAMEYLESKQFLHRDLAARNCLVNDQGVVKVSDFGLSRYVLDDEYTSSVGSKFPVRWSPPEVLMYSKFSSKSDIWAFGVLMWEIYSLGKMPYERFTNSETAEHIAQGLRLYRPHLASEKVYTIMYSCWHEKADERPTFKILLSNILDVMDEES
Sequence of broad panel of kinases (Homo sapiens, UniProt Q15303) (Q15303 26-1308 limits assumed): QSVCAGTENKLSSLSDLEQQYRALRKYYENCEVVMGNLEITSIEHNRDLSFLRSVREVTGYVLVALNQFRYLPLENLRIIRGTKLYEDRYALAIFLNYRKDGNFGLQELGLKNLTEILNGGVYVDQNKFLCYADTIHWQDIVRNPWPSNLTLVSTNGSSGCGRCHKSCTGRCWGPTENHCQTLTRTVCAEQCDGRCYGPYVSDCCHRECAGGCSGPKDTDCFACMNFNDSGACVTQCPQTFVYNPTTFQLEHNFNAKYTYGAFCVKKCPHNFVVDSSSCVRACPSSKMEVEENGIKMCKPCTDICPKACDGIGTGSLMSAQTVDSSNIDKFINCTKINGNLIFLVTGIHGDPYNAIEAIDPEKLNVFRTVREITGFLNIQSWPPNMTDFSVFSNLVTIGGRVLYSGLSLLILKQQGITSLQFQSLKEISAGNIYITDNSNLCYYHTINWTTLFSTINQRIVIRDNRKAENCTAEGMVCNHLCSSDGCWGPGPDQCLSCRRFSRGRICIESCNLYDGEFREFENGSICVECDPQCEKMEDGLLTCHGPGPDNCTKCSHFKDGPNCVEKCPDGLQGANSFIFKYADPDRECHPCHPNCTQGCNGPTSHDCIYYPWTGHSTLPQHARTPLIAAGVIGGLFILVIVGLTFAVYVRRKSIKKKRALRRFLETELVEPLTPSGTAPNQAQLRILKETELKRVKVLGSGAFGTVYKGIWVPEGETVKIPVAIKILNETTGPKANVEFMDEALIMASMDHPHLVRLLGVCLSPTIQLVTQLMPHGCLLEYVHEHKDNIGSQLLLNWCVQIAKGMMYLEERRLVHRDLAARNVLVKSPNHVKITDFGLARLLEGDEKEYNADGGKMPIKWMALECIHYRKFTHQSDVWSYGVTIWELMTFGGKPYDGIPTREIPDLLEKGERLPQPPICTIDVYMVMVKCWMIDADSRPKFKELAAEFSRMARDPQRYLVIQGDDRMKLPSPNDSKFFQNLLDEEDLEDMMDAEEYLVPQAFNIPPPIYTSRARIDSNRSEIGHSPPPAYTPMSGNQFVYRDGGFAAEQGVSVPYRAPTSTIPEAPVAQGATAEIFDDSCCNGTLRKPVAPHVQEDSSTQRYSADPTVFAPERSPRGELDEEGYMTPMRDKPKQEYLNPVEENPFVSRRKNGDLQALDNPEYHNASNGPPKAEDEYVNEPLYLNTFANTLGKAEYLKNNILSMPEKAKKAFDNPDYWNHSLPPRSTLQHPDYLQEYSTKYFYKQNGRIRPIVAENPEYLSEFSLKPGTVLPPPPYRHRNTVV
Sequence of broad panel of kinases (Homo sapiens, UniProt Q8NI60) (Q8NI60 163-647 limits assumed): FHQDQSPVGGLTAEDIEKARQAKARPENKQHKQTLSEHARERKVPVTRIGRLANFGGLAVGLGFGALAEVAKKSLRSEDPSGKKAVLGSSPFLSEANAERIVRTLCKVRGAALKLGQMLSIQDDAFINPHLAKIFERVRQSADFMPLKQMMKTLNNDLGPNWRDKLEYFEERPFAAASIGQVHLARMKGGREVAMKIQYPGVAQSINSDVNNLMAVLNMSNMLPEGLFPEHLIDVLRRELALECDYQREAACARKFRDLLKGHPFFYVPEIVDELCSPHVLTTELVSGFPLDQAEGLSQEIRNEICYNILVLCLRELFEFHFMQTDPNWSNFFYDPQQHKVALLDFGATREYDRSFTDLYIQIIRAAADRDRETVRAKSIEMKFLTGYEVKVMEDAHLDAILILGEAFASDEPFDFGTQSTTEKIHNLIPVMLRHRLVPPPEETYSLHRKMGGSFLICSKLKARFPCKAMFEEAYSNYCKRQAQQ
Sequence of broad panel of kinases (Homo sapiens, UniProt O14733) (O14733 2-419 limits assumed): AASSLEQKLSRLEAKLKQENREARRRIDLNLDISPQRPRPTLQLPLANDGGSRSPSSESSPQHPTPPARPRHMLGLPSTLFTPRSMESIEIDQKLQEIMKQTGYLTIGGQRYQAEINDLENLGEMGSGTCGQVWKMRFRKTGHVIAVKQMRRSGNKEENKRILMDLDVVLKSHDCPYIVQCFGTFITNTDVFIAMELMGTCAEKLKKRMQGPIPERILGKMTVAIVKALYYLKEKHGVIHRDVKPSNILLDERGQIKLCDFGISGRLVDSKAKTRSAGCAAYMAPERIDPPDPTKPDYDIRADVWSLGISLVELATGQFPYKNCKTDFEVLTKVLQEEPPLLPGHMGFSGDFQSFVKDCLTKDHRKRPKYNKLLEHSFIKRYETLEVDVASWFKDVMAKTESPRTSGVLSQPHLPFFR
Sequence of broad panel of kinases (Homo sapiens, UniProt P53350) (P53350 2-603 limits assumed): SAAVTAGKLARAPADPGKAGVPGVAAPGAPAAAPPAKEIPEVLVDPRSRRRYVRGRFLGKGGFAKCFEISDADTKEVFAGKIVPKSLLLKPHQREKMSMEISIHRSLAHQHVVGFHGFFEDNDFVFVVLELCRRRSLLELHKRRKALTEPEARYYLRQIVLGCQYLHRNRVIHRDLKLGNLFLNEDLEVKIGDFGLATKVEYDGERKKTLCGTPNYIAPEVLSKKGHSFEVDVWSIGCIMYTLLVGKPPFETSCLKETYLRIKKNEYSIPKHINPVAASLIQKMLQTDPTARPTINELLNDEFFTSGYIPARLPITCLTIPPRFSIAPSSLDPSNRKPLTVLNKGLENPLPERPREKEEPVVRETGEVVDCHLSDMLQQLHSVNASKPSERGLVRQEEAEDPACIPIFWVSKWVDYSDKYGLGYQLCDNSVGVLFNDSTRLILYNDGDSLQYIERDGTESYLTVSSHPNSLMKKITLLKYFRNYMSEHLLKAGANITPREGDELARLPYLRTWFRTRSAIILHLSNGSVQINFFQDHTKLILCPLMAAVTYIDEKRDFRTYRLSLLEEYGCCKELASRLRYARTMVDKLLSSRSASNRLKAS

SMILES	percent of control binding remaining (lower = stronger binding) (broad panel of kinases [1])	percent of control binding remaining (lower = stronger binding) (broad panel of kinases [2])	percent of control binding remaining (lower = stronger binding) (broad panel of kinases [3])	percent of control binding remaining (lower = stronger binding) (broad panel of kinases [4])	percent of control binding remaining (lower = stronger binding) (broad panel of kinases [5]; CDK4-cyclinD1)	percent of control binding remaining (lower = stronger binding) (broad panel of kinases [5]; CDK4-cyclinD3)	percent of control binding remaining (lower = stronger binding) (broad panel of kinases [6])	percent of control binding remaining (lower = stronger binding) (broad panel of kinases [7])	percent of control binding remaining (lower = stronger binding) (broad panel of kinases [8])	percent of control binding remaining (lower = stronger binding) (broad panel of kinases [9])	percent of control binding remaining (lower = stronger binding) (broad panel of kinases [10])	percent of control binding remaining (lower = stronger binding) (broad panel of kinases [11])	percent of control binding remaining (lower = stronger binding) (broad panel of kinases [12])	percent of control binding remaining (lower = stronger binding) (broad panel of kinases [13])	percent of control binding remaining (lower = stronger binding) (broad panel of kinases [14])	percent of control binding remaining (lower = stronger binding) (broad panel of kinases [15])	percent of control binding remaining (lower = stronger binding) (broad panel of kinases [16]; TYK2(JH1domain-catalytic))	percent of control binding remaining (lower = stronger binding) (broad panel of kinases [16]; TYK2(JH2domain-pseudokinase))	percent of control binding remaining (lower = stronger binding) (broad panel of kinases [17])	percent of control binding remaining (lower = stronger binding) (broad panel of kinases [18])	further results
C=CC(=O)N1CC[C@H](Nc2nc(CN3CCOCC3)cc(Nc3ncc(C(=O)Nc4c(C)cccc4C)s3)n2)C1 [Example I-2]	94%	100%	0%	73%	96%	94%	73%	0.6%	1.3%	0%	100%	92%	91%	97%	88%	100%	89%	28%	92%	88%	percent of control binding remaining (lower = stronger binding) (broad panel of kinases [19]): 97%; percent of control binding remaining (lower = stronger binding) (broad panel of kinases [20]): 56%; percent of control binding remaining (lower = stronger binding) (broad panel of kinases [21]): 100%; percent of control binding remaining (lower = stronger binding) (broad panel of kinases [22]): 96%; percent of control binding remaining (lower = stronger binding) (broad panel of kinases [23]): 97%; percent of control binding remaining (lower = stronger binding) (broad panel of kinases [24]): 82%; percent of control binding remaining (lower = stronger binding) (broad panel of kinases [25]): 97%; percent of control binding remaining (lower = stronger binding) (broad panel of kinases [26]): 100%; % change compared to control (broad panel of kinases [27]): 24%; percent of control binding remaining (lower = stronger binding) (broad panel of kinases [28]): 100%; percent of control binding remaining (lower = stronger binding) (broad panel of kinases [29]): 54%; percent of control binding remaining (lower = stronger binding) (broad panel of kinases [30]): 100%; percent of control binding remaining (lower = stronger binding) (broad panel of kinases [31]): 95%; percent of control binding remaining (lower = stronger binding) (broad panel of kinases [32]): 17%; percent of control binding remaining (lower = stronger binding) (broad panel of kinases [33]): 100%; % change compared to control (broad panel of kinases [34]): 100%; percent of control binding remaining (lower = stronger binding) (broad panel of kinases [35]): 86%; percent of control binding remaining (lower = stronger binding) (broad panel of kinases [36]): 9.2%; percent of control binding remaining (lower = stronger binding) (broad panel of kinases [37]): 100%
C=CC(=O)N1CC[C@H](Nc2nccc(Nc3ncc(C(=O)Nc4c(C)cccc4C)s3)n2)C1 [Example I-3]	95%	100%	0.05%	100%	99%	95%	88%	0.2%	0.8%	0%	100%	93%	90%	95%	74%	100%	91%	26%	83%	85%	percent of control binding remaining (lower = stronger binding) (broad panel of kinases [19]): 90%; percent of control binding remaining (lower = stronger binding) (broad panel of kinases [20]): 61%; percent of control binding remaining (lower = stronger binding) (broad panel of kinases [21]): 89%; percent of control binding remaining (lower = stronger binding) (broad panel of kinases [22]): 95%; percent of control binding remaining (lower = stronger binding) (broad panel of kinases [23]): 88%; percent of control binding remaining (lower = stronger binding) (broad panel of kinases [24]): 96%; percent of control binding remaining (lower = stronger binding) (broad panel of kinases [25]): 100%; percent of control binding remaining (lower = stronger binding) (broad panel of kinases [26]): 100%; % change compared to control (broad panel of kinases [27]): 8.1%; % change compared to control (broad panel of kinases [28]): 100%; percent of control binding remaining (lower = stronger binding) (broad panel of kinases [29]): 58%; percent of control binding remaining (lower = stronger binding) (broad panel of kinases [30]): 100%; percent of control binding remaining (lower = stronger binding) (broad panel of kinases [31]): 92%; percent of control binding remaining (lower = stronger binding) (broad panel of kinases [32]): 7.6%; percent of control binding remaining (lower = stronger binding) (broad panel of kinases [33]): 84%; % change compared to control (broad panel of kinases [34]): 100%; percent of control binding remaining (lower = stronger binding) (broad panel of kinases [35]): 83%; percent of control binding remaining (lower = stronger binding) (broad panel of kinases [36]): 49%; percent of control binding remaining (lower = stronger binding) (broad panel of kinases [37]): 100%
